One assay deals with lympha cells. Briefly: Mitogenic activity in vitro (Blastogenic index). It counts as cell-based, C3H/He male mice. Particulars: Mus musculus, Lymphocyte; terminal concentration 1 μg/ml; ratio of 3H-tymidine uptake vs blank control; read-out: Blastgenic Index. How it is done: (1) Mitogenic activity in vitro
Mitogenic activity means activity of activating mitogenic cell division, and in this test system, the amount of tymidine taken into lympha cells was measured and a ratio determined against a blank control call (Blastogenic index) was calculated.
For example, adding the compound prepared in example 1(c) to the test system induced 30 times the amount of tymidine taken into the lympha cells versus the control.
The amounts were measured by density of a radiolabel.
Mytogenic activity in vitro was measured by the following method (See Procedure Method of Immunoexperiment pp 315 published by Japan Immunology Society).
C3H/He male mice 6 weeks old were killed by bloodletting, and their spleens were isolated and homogenized. Homogenizing liquids were filtered with gauze, and suspending cells were prepared with PBS solution. After washing, lymphacytes fractions were gathered with lympholight M. Lymphacytes were suspended in RPMI 1640 cultivation solution (10% FEBS), and the solution was divided into 5×10^5 cells/180 μl/wells. Ten times concentration of the terminal concentration (1 μg/ml) of the compounds of the present invention were added with 20 μl portions to each of the wells.
After cultivation, ^3 H-tymidine 0.5 μCi/20 μl was added to the each cells. Cultivation was continued at 37° C. for another 24 hrs, and amounts of ^3 H-tymidine taken into the cells were measured. Mitogenic activities were calculated as by Blastogenic index in as follows. [formula]

A further assay deals with Meth-A sarcoma. In words: Anti-tumor effect on Balb/C mice inoculated with Meth-A Sarcoma. The class given is in vivo, female Balb/C mice. The conditions noted are these: for Apperarent tumor weight: g ± standard error; for effect on prolongation of life / effect on tumore regression: at the dose of 3 mg/kg; for Survival period: iv tail vein Day 7, 9, 12, day ± standard error. How it is done:
(1) Anti-tumor effect on Balb/C mice inocudlated with Meth-A Sarcoma
Anti-tumor effect was measured by the following procedure.
Tumor cells which had been maintained in ascites of Balb/C mouse generation after generation was used. One group is consisting of eight female Balb/C mice. Meth-A sarcoma tumor (1×10^5 cells/0.05 ml) was inoculated into left side of female mice of 7-week old (body weight: 18-20 g). Seven day after, when tumor size came to 6~9 mm, test compound was administered into tail vein first (day 7) and then administered two times (total three times: Day 7, 9, 12). Dose of test compound is 3 and 10 mg/kg or 3, 10 and 30 mg/kg and each test compound solution volume was 10 ml/kg. Anti-tumor effect is estimated by survival period (from inoculation day to death day) and tumor apparent weight. [formula] Test results about survival period and tumor appearent weight are shown in the following Tables II(1) and II(2), respectively.
In experiments, statistic analysis was done with unpaired Student's t(two tailed)-test. […] P values lower than 0.05 were judged to be significant.

In a further assay the test system is RLδ1 tumor. In words: Anti-tumor effect on Balb/C mice inoculated with RLδ1 tumor. The class given is in vivo, female Balb/C mice. Particulars: for Survival period: Day 10, day ± standard error; for effect on tumor regression: 3 mg/body, Day 14 (4 day after administration); for Appearent tumor weight: g ± standard error. How it is done: (2) Anti-tumor effect on Balb/C mice inoculated with RLδ1 tumor.
Tumor cells which had been maintained in ascites of Balb/C mouse generation after generation was used. One group is consisting of six female balb/C mice. RLδ1 tumor (1×10^5 cells/0.05 ml) was inoculated into left side of female mice of 6-week old (body weight: 18~20 g). Ten days after, when tumore size came to 7~10 mm, compound of example No. 1(1) or 1(t) was administered by i.p. route (Day 10). Dose of test compound was 1 and 3 mg/body dand each test compound solution volume was 10 ml/kg. Antitumore effect is estimated by survival period and tumor appearent weight.
Test results about survival period and tumor apparent weight are shown in the following Tables II(3) and II(4), respectively.

The mark [1] stands for this setting: dose 1 (mg/kg as printed) ip, Day 10 (first column).
Where [2] appears, read: dose 1 (mg/kg as printed) ip, second column printed Day 10.
Where [3] appears, read: dose 3 (mg/kg as printed) ip, Day 10 (first column).
[4] abbreviates: dose 3 (mg/kg as printed) ip, second column printed Day 10.

With `O=C(CCCCCCCCc1cccc2ccccc12)N[C@H]1C(O)O[C@H](CO)[C@@H](OS(=O)(=O)O)[C@@H]1OC(=O)CCCCCCCCc1cccc2ccccc12` (stereo partly drawn) [1(u), 2-deoxy-2-[9-(1-naphthyl)nonanoyl]amino-3-O-[9-(1-naphthyl)nonanoyl]-4-O-sulfo-D-glucopyranose], the fold induction at 1 µg/mL in the assay on lympha cells stood at 10.

Regarding `CCCCCCCCCCCCCC(=O)N[C@H]1C(O)O[C@H](CO)[C@@H](OS(=O)(=O)O)[C@@H]1OC(=O)c1ccc(OCCCCCCCCCC)c(OCCCCCCCCCC)c1` (some centres unmarked) [4(c)], the Apperarent tumor weight was 0.200 ± 0.044 g with Meth-A sarcoma (3 mg/kg iv, Day 7); 0.230 ± 0.084 g in the assay with Meth-A sarcoma (3 mg/kg iv, Day 10); 0.392 ± 0.176 g in the assay with Meth-A sarcoma (3 mg/kg iv, Day 13); 0.578 ± 0.274 g in the assay with Meth-A sarcoma (3 mg/kg iv, Day 16); 0.210 ± 0.025 g with Meth-A sarcoma (10 mg/kg iv, Day 7); 0.206 ± 0.053 g with Meth-A sarcoma (10 mg/kg iv, Day 10). The Apperarent tumor weight in the assay on Meth-A sarcoma (10 mg/kg iv, Day 13) was found to be 0.242 ± 0.086 g; in the assay on Meth-A sarcoma (10 mg/kg iv, Day 16) it was 0.300 ± 0.193 g; in the assay on Meth-A sarcoma (30 mg/kg iv, Day 7), 0.209 ± 0.023 g; with Meth-A sarcoma (30 mg/kg iv, Day 10) it was 0.168 ± 0.062 g; in the assay with Meth-A sarcoma (30 mg/kg iv, Day 13), 0.222 ± 0.152 g; in the assay with Meth-A sarcoma (30 mg/kg iv, Day 16), 0.309 ± 0.259 g. Further, in the assay on Meth-A sarcoma, the “effect on prolongation of life” value is listed as “significant effect”. Also, the “effect on tumore regression” value in the assay with Meth-A sarcoma is “significant effect”. Besides, the figures for the Survival period in the assay with Meth-A sarcoma (dose 3 (mg/kg)), in the assay on Meth-A sarcoma (dose 10 (mg/kg)) and in the assay with Meth-A sarcoma (dose 30 (mg/kg)) were 51.9 ± 8.2 days, 58.3 ± 13.8 days and 71.3 ± 16.1 days, respectively.

Turning to `CCCCCCCCCCCC(CC(=O)N[C@H]1COC[C@@H](OS(=O)(=O)O)[C@@H]1OC(=O)CCCCCCCCc1ccccc1)OC(=O)CCCCCCCCc1ccccc1` (single isomer, unassigned) [3(c), 2-deoxy-2-[3-(9-phenylnonanoyl)oxytetradecanoyl]amino-3-O-(9-phenylnonanoyl)-4-O-sulfo-1,5-anhydro-D-xylitol], the fold induction at 1 µg/mL with lympha cells stood at 13.8.

With `CCCCCCCCCCC[C@@H](CC(=O)N[C@H]1CO[C@H](C)[C@@H](OS(=O)(=O)O)[C@@H]1OC(=O)CCCCCCCCc1ccccc1)OC(=O)CCCCCCCCc1ccccc1` [Example 2, 2,6-deoxy-2-[3S-(9-phenylnonanoyloxy)tetradecanoyl]amino-3-O-(9-phenynonanoyl)-4-O-sulfo-1,5-anhydro-D-glucitol], in the assay with lympha cells, the fold induction at 1 µg/mL stood at 33.

For `CCCCCCCCCCOc1ccc(C(=O)N[C@H]2[C@@H](OC)O[C@H](CO)[C@@H](OS(=O)(=O)O)[C@@H]2OC(=O)c2ccc(OCCCCCCCCCC)c(OCCCCCCCCCC)c2)cc1OCCCCCCCCCC` [4(b), Methyl 2-deoxy-2-(3,4-didecyloxybenzoyl)amino-3-O-(3,4-didecyloxybenzoyl)-4-O-sulfo-α-D-glucopyranoside], the Apperarent tumor weight with Meth-A sarcoma (3 mg/kg iv, Day 7) turned out to be 0.218 ± 0.028 g; with Meth-A sarcoma (3 mg/kg iv, Day 10), 0.172 ± 0.094 g; in the assay on Meth-A sarcoma (3 mg/kg iv, Day 13), 0.272 ± 0.181 g; with Meth-A sarcoma (3 mg/kg iv, Day 16), 0.430 ± 0.459 g; in the assay with Meth-A sarcoma (10 mg/kg iv, Day 7), 0.217 ± 0.022 g; in the assay with Meth-A sarcoma (10 mg/kg iv, Day 10) it was 0.154 ± 0.042 g. In addition, the Apperarent tumor weight in the assay on Meth-A sarcoma (10 mg/kg iv, Day 13) is reported as 0.197 ± 0.068 g; in the assay with Meth-A sarcoma (10 mg/kg iv, Day 16), 0.172 ± 0.141 g. In addition, the “effect on prolongation of life” value in the assay with Meth-A sarcoma is “significant effect”. Besides, the “effect on tumore regression” value in the assay on Meth-A sarcoma was “significant effect”. Besides, the results for the Survival period in the assay with Meth-A sarcoma (dose 3 (mg/kg)) and with Meth-A sarcoma (dose 10 (mg/kg)) were 61.6 ± 18.0 days and 65.8 ± 20.4 days, respectively.

`CCCCCCCCCCC[C@H](CC(=O)N[C@H]1[C@H](OC)O[C@H](CO)[C@@H](OS(=O)(=O)O)[C@@H]1OC(=O)CCCCCCCCc1ccccc1)OC(=O)CCCCCCCCc1ccccc1` [1(t), 2-methyl-2-deoxy-2-[3R-(9-phenylnonanoyloxy)tetradecanoyl]amino-3-O-(9-phenylnonanoyl)-4-O-sulfo-β-D-glucopyranoside]: the fold induction at 1 µg/mL in the assay on lympha cells stood at 50. In addition, the values for the Survival period in the assay with RLδ1 tumor (1 mg/body ip) and with RLδ1 tumor (3 mg/body ip) were 51.8 ± 20.1 days and 54.0 ± 18.4 days, respectively. Besides, the “effect on tumor regression” value in the assay with RLδ1 tumor is reported as “significant effect”. The Appearent tumor weight in the assay with RLδ1 tumor (setting [1]) is listed as 0.226 ± 0.082 g; in the assay on RLδ1 tumor (setting [2]) it was 0.241 ± 0.257 g; in the assay with RLδ1 tumor (dose 1 (mg/kg) ip, Day 13), 0.383 ± 0.583 g; with RLδ1 tumor (setting [3]), 0.213 ± 0.041 g; with RLδ1 tumor (setting [4]) it was 0.159 ± 0.092 g; with RLδ1 tumor (dose 3 (mg/kg) ip, Day 13) it was 0.147 ± 0.153 g.

For `CCCCCCCCCCC[C@@H](CC(=O)N[C@H]1C(O)O[C@H](CO)[C@@H](OS(=O)(=O)O)[C@@H]1OC(=O)CCCCCCCCCCc1ccccc1)OC(=O)CCCCCCCCCCc1ccccc1` (stereo partly drawn) [1(f), 2-deoxy-2-[3S-(11-phenylundecanoyloxy)tetradecanoyl]amino-3-O-(11-phenylundecanoyl)-4-O-sulfo-D-glucopyranose], in the assay with lympha cells, the fold induction at 1 µg/mL came out at 23.

In the case of `CCCCCCCCCCC[C@@H](CC(=O)N[C@H]1C(O)O[C@H](CO)[C@@H](OS(=O)(=O)O)[C@@H]1OC(=O)CCCCCCCOc1ccccc1)OC(=O)CCCCCCCOc1ccccc1` (stereo partly drawn) [1(l), 2-deoxy-2-[3S-(8-phenoxyoctanoyloxy)tetradecanoyl]amino-3-O-(8-phenoxyoctanoyl)-4-O-sulfo-D-glucopyranose], the Survival period in the assay with RLδ1 tumor (1 mg/body ip) was found to be 47.3 ± 18.8 days; with RLδ1 tumor (3 mg/body ip), 55.3 ± 16.4 days. The “effect on tumor regression” value in the assay on RLδ1 tumor is on record as “significant effect”. Also, the Appearent tumor weight with RLδ1 tumor (setting [1]) is listed as 0.216 ± 0.043 g; with RLδ1 tumor (setting [2]) it was 0.234 ± 0.168 g; in the assay on RLδ1 tumor (dose 1 (mg/kg) ip, Day 13) it was 0.351 ± 0.349 g; in the assay on RLδ1 tumor (setting [3]) it was 0.216 ± 0.029 g; with RLδ1 tumor (setting [4]), 0.210 ± 0.192 g; with RLδ1 tumor (dose 3 (mg/kg) ip, Day 13) it was 0.333 ± 0.375 g.

For `CCCCCCCCCCC[C@@H](CC(=O)N[C@H]1C(O)O[C@H](CO)[C@@H](OS(=O)(=O)O)[C@@H]1OC(=O)CCCCCCCCc1cccc2ccccc12)OC(=O)CCCCCCCCc1cccc2ccccc12` (stereo partly drawn) [1(o), 2-deoxy-2-[3S-[9-(1-naphthyl)nonanoyloxy]tetradecanoyl]amino-3-O-[9-(1-naphthyl)nonanoyl]-4-O-sulfo-D-glucopyranose], in the assay on lympha cells, the fold induction at 1 µg/mL is 17.

Source of the values: patent USRE36385E, “Glucopyranose derivatives” (Ono Pharmaceutical Co., Ltd., priority 1985, dated 1999).
